Structures are written as SMILES.

In this experiment the target is T1, FGFR2 (N549H) (Homo sapiens, UniProt P21802, N549H).
T1 construct: purchased Millipore 14-742
T1 sequence (P21802 22-821 N549H): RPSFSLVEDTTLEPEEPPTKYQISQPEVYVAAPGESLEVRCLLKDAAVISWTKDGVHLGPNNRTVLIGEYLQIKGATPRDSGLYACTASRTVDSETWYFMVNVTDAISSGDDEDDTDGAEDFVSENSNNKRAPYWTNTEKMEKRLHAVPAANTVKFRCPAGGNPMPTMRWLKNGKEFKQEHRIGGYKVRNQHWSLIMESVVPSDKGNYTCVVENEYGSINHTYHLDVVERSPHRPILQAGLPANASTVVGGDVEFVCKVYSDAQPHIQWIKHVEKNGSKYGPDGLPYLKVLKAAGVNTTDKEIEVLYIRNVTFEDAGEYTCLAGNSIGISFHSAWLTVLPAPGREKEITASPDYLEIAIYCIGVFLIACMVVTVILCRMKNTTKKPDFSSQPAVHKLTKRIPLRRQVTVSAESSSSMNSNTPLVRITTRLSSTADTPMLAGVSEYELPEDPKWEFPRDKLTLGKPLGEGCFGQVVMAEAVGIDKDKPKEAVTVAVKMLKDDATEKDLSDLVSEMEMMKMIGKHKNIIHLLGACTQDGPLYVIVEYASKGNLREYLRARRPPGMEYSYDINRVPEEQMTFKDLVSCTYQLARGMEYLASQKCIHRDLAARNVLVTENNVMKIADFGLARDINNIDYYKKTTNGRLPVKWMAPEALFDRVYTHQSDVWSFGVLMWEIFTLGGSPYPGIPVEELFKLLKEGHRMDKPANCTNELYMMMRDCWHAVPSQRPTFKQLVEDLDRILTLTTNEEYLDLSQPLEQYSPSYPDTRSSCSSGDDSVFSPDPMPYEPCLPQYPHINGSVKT
Nature of the experiment: FGFR2 kinase activity assay (fluorescent ELISA). To be noted: 30 μM compound. The format is biochemical. How it is done: A fluorescent ELISA assay was developed to identify and characterize inhibitors of FGFR2 kinase. This heterogeneous assay utilized a biotinylated peptide with a tyrosine motif as a substrate and an anti-phospho-tyrosine antibody to measure phosphorylation of the substrate. The reaction was initiated by adding a test compound, 37 uM Pyk2 substrate (Midwest Biotech, cat. #MBT2383), 12.5 uM ATP (Roche, cat. #11 140 965 001), and 0.5 uM FGFR2 enzyme (Millipore, cat. #14-742) sequentially to a non-binding polypropylene V-well plate. All reagents were in assay buffer consisting of: 50 mM Tris-HCL, 0.02 mg/mL BSA, 10 mM MgCl2, 0.1 mM Na3VO4, 1 mM EGTA, […], 0.01% NP-40, 2 mM DTT, 10% Glycerol. The reaction was incubated for 60 minutes. As the reaction proceeded, FGFR2 phosphorylated tyrosines in the peptide. The reaction mixture was then moved to a blocked streptavidin coated Nunc Maxisorb plate (coated with 100 ng streptavidin from Pierce (cat #15-124) per well) allowing for the capture of the biotinylated peptide. Peptide was captured for 30 minutes at room temperature, the phosphorylation of peptide continues during this phase. The reaction was stopped by washing the Streptavidin plate 6 times with TBST. Phosphorylated peptide was detected by adding anti-phospho tyrosine antibody (purchased from Cell Signaling, cat. #9411, diluted 1:3000), unbound antibody was removed by washing 6 times with TBST. Secondary detection was performed using Alkaline Phosphatase tagged goat anti-mouse antibody (purchased from Pierce, cat. #31320, diluted 1:4000) for one hour. Unbound secondary antibody was removed by washing 6 times with TBST.
The fluorescent readout was initiated by the addition of Promega Attophos substrate (purchased from Promega; Kit catalog number: S1000, dilution=6 mg/10 mL), which when dephosphorylated by Alkaline phosphatase emitted a fluorescent signal of […] when excited by a signal […]. This reading was done on the Perkin Elmer Envision system. […] The signal was directly proportional to the activity of FGFR2 and compound inhibition of FGFR2 was monitored by a decrease in signal.
In general terms: An ELISA detects its analyte on a solid surface through an enzyme-linked reagent.
Turning to `COc1ccc(Cl)cc1Nc1nccn2c(NC(=O)OC(C)C)nnc12` [Compound 7, isopropyl {8-[(5-chloro-2-methoxyphenyl)amino][1,2,4]triazolo[4,3-a]pyrazin-3-yl}carbamate], the inhibition (usually the change of the read-out against control, counted positive when it falls) at 30 µM came out at 55.5%.

Regarding `CC(C)OC(=O)Nc1nnc2c(Nc3ccccc3Cl)nccn12` [Compound 13, isopropyl {8-[(2-chlorophenyl)amino][1,2,4]triazolo[4,3-a]pyrazin-3-yl}carbamate], the inhibition at 30 µM was 50.5%. `Cc1ccccc1Nc1nccn2c(NC(=O)OC(C)C)nnc12` [Compound 14, isopropyl {8-[(2-methylphenyl)amino][1,2,4]triazolo[4,3-a]pyrazin-3-yl}carbamate]: the inhibition at 30 µM stood at 82%.

For the compound `CC(C)OC(=O)Nc1nnc2c(NCc3ccc(C(F)(F)F)cc3)nccn12` [Compound 17, isopropyl (8-{[4-(trifluoromethyl)benzyl]amino}[1,2,4]triazolo[4,3-a]pyrazin-3-yl)carbamate], the inhibition at 30 µM was determined as 68.8%. The same measure for `Cc1cccc(CNc2nccn3c(NC(=O)OC(C)C)nnc23)c1` [Compound 19, isopropyl {8-[(3-methylbenzyl)amino][1,2,4]triazolo[4,3-a]pyrazin-3-yl}carbamate]: 55.2%; for `COc1ccc(C)cc1Nc1nccn2c(NC(=O)OC(C)C)nnc12` [Compound 23, isopropyl {8-[(2-methoxy-5-methylphenyl)amino][1,2,4]triazolo[4,3-a]pyrazin-3-yl}carbamate]: 50.9%. The same measure for `CC(C)OC(=O)Nc1nnc2c(NCc3cccc(Cl)c3)nccn12` [Compound 24, isopropyl {8-[(3-chlorobenzyl)amino][1,2,4]triazolo[4,3-a]pyrazin-3-yl}carbamate]: 65.3%; for `CC(C)OC(=O)Nc1nnc2c(NCCc3ccc(F)cc3)nccn12` [Compound 28, isopropyl (8-{[2-(4-fluorophenyl)ethyl]amino}[1,2,4]triazolo[4,3-a]pyrazin-3-yl)carbamate]: 51.6%; for `CC(C)OC(=O)Nc1nnc2c(N(C)Cc3ccccc3)nccn12` [Compound 30, isopropyl {8-[benzyl(methyl)amino][1,2,4]triazolo[4,3-a]pyrazin-3-yl}carbamate]: 56.3%. The result for `COc1cc(CCNc2nccn3c(NC(=O)OC(C)C)nnc23)cc(OC)c1` [Compound 31, isopropyl (8-{[2-(3,5-dimethoxyphenyl)ethyl]amino}[1,2,4]triazolo[4,3-a]pyrazin-3-yl)carbamate] reads 96.5%.

Consider `CC(C)OC(=O)Nc1nnc2c(Nc3ccc4c(c3)CCC4)nccn12` [Compound 34, isopropyl [8-(2,3-dihydro-1H-inden-5-ylamino)[1,2,4]triazolo[4,3-a]pyrazin-3-yl]carbamate], for which the inhibition at 30 µM worked out at 68.7%. Consider `COc1ccc(Nc2nccn3c(NC(=O)OC(C)C)nnc23)c(OC)c1` [Compound 35, isopropyl {8-[(2,4-dimethoxyphenyl)amino][1,2,4]triazolo[4,3-a]pyrazin-3-yl}carbamate], for which the inhibition at 30 µM amounted to 57%. The result for `CC(C)OC(=O)Nc1nnc2c(NCCc3ccc(Oc4ccccc4)cc3)nccn12` [Compound 36, isopropyl (8-{[2-(4-phenoxyphenyl)ethyl]amino}[1,2,4]triazolo[4,3-a]pyrazin-3-yl)carbamate] reads 51.4%; that for `COc1ccccc1N(C)c1nccn2c(NC(=O)OC(C)C)nnc12` [Compound 41, isopropyl {8-[(2-methoxyphenyl)(methyl)amino][1,2,4]triazolo[4,3-a]pyrazin-3-yl}carbamate], 62.5%. The same measure for `Cc1cccc(CCNc2nccn3c(NC(=O)OC(C)C)nnc23)c1` [Compound 42, isopropyl (8-{[2-(3-methylphenyl)ethyl]amino}[1,2,4]triazolo[4,3-a]pyrazin-3-yl)carbamate]: 58.7%; for `COc1ccc(OC)c(Nc2nccn3c(NC(=O)OC(C)C)nnc23)c1` [Compound 46, isopropyl {8-[(2,5-dimethoxyphenyl)amino][1,2,4]triazolo[4,3-a]pyrazin-3-yl}carbamate]: 84.6%.

Regarding `CC(C)OC(=O)Nc1nnc2c(NCc3ccccc3C(F)(F)F)nccn12` [Compound 48, isopropyl (8-{[2-(trifluoromethyl)benzyl]amino}[1,2,4]triazolo[4,3-a]pyrazin-3-yl)carbamate], the inhibition at 30 µM turned out to be 87%. The result for `CC(C)OC(=O)Nc1nnc2c(Nc3ccc(C(C)(C)C)cc3)nccn12` [Compound 50, isopropyl {8-[(4-tert-butylphenyl)amino][1,2,4]triazolo[4,3-a]pyrazin-3-yl}carbamate] reads 63.6%; that for `CC(C)OC(=O)Nc1nnc2c(Nc3nc4ccccc4[nH]3)nccn12` [Compound 56, isopropyl [8-(1H-benzimidazol-2-ylamino)[1,2,4]triazolo[4,3-a]pyrazin-3-yl]carbamate], 64.7%; that for `CC(C)OC(=O)Nc1nnc2c(NCc3ccc(-c4ccccc4)cc3)nccn12` [Compound 61, isopropyl {8-[(biphenyl-4-ylmethyl)amino][1,2,4]triazolo[4,3-a]pyrazin-3-yl}carbamate], 100%. The same measure for `CC(C)OC(=O)Nc1nnc2c(NCc3cc(C(F)(F)F)cc(C(F)(F)F)c3)nccn12` [Compound 66, isopropyl (8-{[3,5-bis(trifluoromethyl)benzyl]amino}[1,2,4]triazolo[4,3-a]pyrazin-3-yl)carbamate]: 58.4%; for `CC(C)OC(=O)Nc1nnc2c(Nc3cccc(Cl)c3)nccn12` [Compound 67, isopropyl {8-[(3-chlorophenyl)amino][1,2,4]triazolo[4,3-a]pyrazin-3-yl}carbamate]: 119%; for `Cc1ccc(N(C)c2nccn3c(NC(=O)OC(C)C)nnc23)cc1` [Compound 69, isopropyl {8-[methyl(4-methylphenyl)amino][1,2,4]triazolo[4,3-a]pyrazin-3-yl}carbamate]: 52.8%. The same measure for `CC(C)OC(=O)Nc1nnc2c(NCc3ccccc3Br)nccn12` [Compound 80, isopropyl {8-[(2-bromobenzyl)amino][1,2,4]triazolo[4,3-a]pyrazin-3-yl}carbamate]: 51%; for `CC(C)OC(=O)Nc1nnc2c(NCc3ccccc3F)nccn12` [Compound 84, isopropyl {8-[(2-fluorobenzyl)amino][1,2,4]triazolo[4,3-a]pyrazin-3-yl}carbamate]: 84%. Regarding `Cc1cccc2c(CCNc3nccn4c(NC(=O)OC(C)C)nnc34)c[nH]c12` [Compound 85, isopropyl (8-{[2-(7-methyl-1H-indol-3-yl)ethyl]amino}[1,2,4]triazolo[4,3-a]pyrazin-3-yl)carbamate], the inhibition at 30 µM was determined as 50.6%. On to `CC(C)OC(=O)Nc1nnc2c(N(C)c3ccc(Cl)cc3)nccn12` [Compound 87, isopropyl {8-[(4-chlorophenyl)(methyl)amino][1,2,4]triazolo[4,3-a]pyrazin-3-yl}carbamate], for which the inhibition at 30 µM turned out to be 57.7%. The same measure for `Nc1nnc2c(NCc3ccccc3Br)nccn12` [Compound 92, N^8-(2-bromobenzyl)[1,2,4]triazolo[4,3-a]pyrazine-3,8-diamine]: 59.2%.

As to `Nc1nnc2c(Nc3cccc(F)c3)nccn12` [Compound 99, N^8-(3-fluorophenyl)[1,2,4]triazolo[4,3-a]pyrazine-3,8-diamine], the inhibition at 30 µM was 60.7%. Turning to `Nc1nnc2c(NCc3ccc(C(F)(F)F)cc3)nccn12` [Compound 100, N^8-[4-(trifluoromethyl)benzyl][1,2,4]triazolo[4,3-a]pyrazine-3,8-diamine], the inhibition at 30 µM stood at 66.5%. As to `Cc1ccc(N(C)c2nccn3c(N)nnc23)cc1` [Compound 107, N^8-methyl-N^8-(4-methylphenyl)[1,2,4]triazolo[4,3-a]pyrazine-3,8-diamine], the inhibition at 30 µM was found to be 86.1%. The same measure for `CN(C)c1ccc(Nc2nccn3c(N)nnc23)cc1` [Compound 116, N^8-[4-(dimethylamino)phenyl][1,2,4]triazolo[4,3-a]pyrazine-3,8-diamine]: 50%; for `Cc1cccc(Nc2nccn3c(N)nnc23)c1` [Compound 118, N^8-(3-methylphenyl)[1,2,4]triazolo[4,3-a]pyrazine-3,8-diamine]: 50.4%. With `Nc1nnc2c(Nc3ccccc3F)nccn12` [Compound 121, N^8-(2-fluorophenyl)[1,2,4]triazolo[4,3-a]pyrazine-3,8-diamine], the inhibition at 30 µM was 65.7%. The same measure for `COc1ccc(C)cc1Nc1nccn2c(N)nnc12` [Compound 124, N^8-(2-methoxy-5-methylphenyl)[1,2,4]triazolo[4,3-a]pyrazine-3,8-diamine]: 73.5%.
